# Experimental data as given in PubChem BioAssay (NCI).
# Several values for one entry are separate records, joined by “and”; a condition that tells them apart may be missing. Equal entries are not always repeated.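 All cell lines were grown in 96-well plates and treated with compound for 48 hours. The concentration for 50% growth inhibition is given as GI50. TGI denotes the concentration required for complete inhibition of growth.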 *1 amine or outer side, *2 acyl side, *3 side chain or, on linkers, in order; H or OH if unused. Where a SMILES comes first, the peptide text is derived from it. Bridges are numbered along the chain shown (N, C = ends). [ ]: non-standard residue; d: D form. The star is where a group is joined. Phe(3-Me) = Cc1cccc(C[C@H](N)C(=O)O)c1; NH(4-Cl-2-F-phenyl) = Fc1cc(Cl)ccc1N*; Pro(4R-Me) = C[C@H]1CN[C@H](C(=O)O)C1; Propanoyl(3-NMe2) = CN(C)CCC(=O)*; Hyp = O=C(O)[C@@H]1C[C@@H](O)CN1; aThr = C[C@H](O)[C@H](N)C(=O)O; Pip = O=C(O)[C@@H]1CCCCN1; CO = O=C([*:1])[*:2]
# Key:
# Experiment in all cases: growth of human tumour cells (NCI), 48 h
# MDA-N = tested on: MDA-N
# NCI/ADR-RES ovarian = tested on: NCI/ADR-RES ovarian
# M19-MEL melanoma = tested on: M19-MEL melanoma
# HOP-18 NSCLC = tested on: HOP-18 NSCLC
# KM20L2 colon = tested on: KM20L2 colon
# DLD-1 colon = tested on: DLD-1 colon
# RXF-631 renal = tested on: RXF-631 renal
# DMS 114 small cell lung = tested on: DMS 114 small cell lung
smiles,measurement,setting,value
CCN(CC(COc1ccc2c(c1)[n+]([O-])nc(N)[n+]2[O-])OC(C)=O)C(C)=O (configuration not stated),TGI,MDA-N,> 100 µM
same,TGI,NCI/ADR-RES ovarian,> 100 µM
CCC/C(=N\NC(=O)c1cc2ccccc2cc1O)C(CC)C(=O)CCC(=O)N(Cc1ccccc1)Cc1ccccc1 (configuration not stated),TGI,M19-MEL melanoma,48.6 µM
same,TGI,HOP-18 NSCLC,91.1 µM
same,TGI,KM20L2 colon,> 100 µM
same,TGI,DLD-1 colon,> 100 µM
same,TGI,RXF-631 renal,> 100 µM
same,TGI,DMS 114 small cell lung,59.7 µM
Cc1ccc(S(=O)(=O)n2cc(-c3nnnn3-c3ccc(Cl)cc3)c(=O)c3ccccc32)cc1,GI50,NCI/ADR-RES ovarian,> 100 µM
same,TGI,NCI/ADR-RES ovarian,> 100 µM
COc1ccc(-c2coc3cc(OC)cc(O)c3c2=O)cc1,TGI,MDA-N,> 100 µM
same,TGI,NCI/ADR-RES ovarian,> 100 µM
CCCN1CCN(c2ccc3nc(-c4ccc5nc(-c6ccc(OCC)c(OCC)c6)[nH]c5c4)[nH]c3c2)CC1,GI50,NCI/ADR-RES ovarian,> 100 µM
same,TGI,NCI/ADR-RES ovarian,> 100 µM
CN(C)/C(N)=N/C(N)=S,TGI,M19-MEL melanoma,> 100 µM
same,TGI,HOP-18 NSCLC,> 100 µM
same,TGI,KM20L2 colon,> 100 µM
same,TGI,DLD-1 colon,> 100 µM
same,TGI,RXF-631 renal,> 100 µM
same,TGI,DMS 114 small cell lung,> 100 µM
N=c1ccn2c(n1)O[C@@H]1[C@@H](O)[C@H](CO)O[C@@H]12,GI50,NCI/ADR-RES ovarian,2.08 µM
same,TGI,NCI/ADR-RES ovarian,> 100 µM
CCOC(=O)/C=C/c1ccccn1,TGI,M19-MEL melanoma,> 100 µM
same,TGI,HOP-18 NSCLC,> 100 µM
same,TGI,DLD-1 colon,> 100 µM
same,TGI,RXF-631 renal,> 100 µM
same,TGI,DMS 114 small cell lung,> 100 µM
O=C(CN1CCN(c2ccc(Cl)cc2)CC1)N1CCN(c2nnc(-c3ccccc3)c(-c3ccccc3)n2)CC1,GI50,NCI/ADR-RES ovarian,5.4 µM
same,TGI,NCI/ADR-RES ovarian,> 100 µM
O=C1C(Cl)=C(Nc2cccc(O)c2)C(=O)N1c1cccc(Cl)c1Cl,GI50,NCI/ADR-RES ovarian,18.9 µM
same,TGI,NCI/ADR-RES ovarian,46 µM
COc1ccc(C#CCC(OC2OC(CO)C(O)C(O)C2O)C(O)c2ccc(OC)c(OC)c2)cc1OC (configuration not stated),TGI,HOP-18 NSCLC,> 100 µM
same,TGI,KM20L2 colon,> 100 µM
same,TGI,DLD-1 colon,> 100 µM
C=C1C(=O)OC2/C=C(\C)C3OC3/C=C(/C(=O)OC)C(OC(C)=O)C(OC(=O)C(C)(O)C(C)OC(C)=O)C12 (configuration not stated),TGI,MDA-N,69.1 µM
same,TGI,M19-MEL melanoma,22.4 µM
same,TGI,DLD-1 colon,7.52 µM
same,TGI,RXF-631 renal,19.6 µM
same,TGI,DMS 114 small cell lung,4.01 µM
CC1=C(C(=O)Nc2ccccc2C)C(c2ccc(C3C(C(=O)Nc4ccccc4C)=CNC=C3C(=O)Nc3ccccc3C)cc2)C(C(=O)Nc2ccccc2C)=C(C)N1,TGI,M19-MEL melanoma,> 57.3 µM
same,TGI,HOP-18 NSCLC,> 76 µM
same,TGI,KM20L2 colon,28.6 µM
same,TGI,DLD-1 colon,37.4 µM
same,TGI,DMS 114 small cell lung,> 60.5 µM
C=C(CN1CCN(c2cccc(F)c2)CC1)c1ccc(C(=O)Nc2ccccc2N)cc1,GI50,NCI/ADR-RES ovarian,0.307 µM
same,TGI,NCI/ADR-RES ovarian,1.92 µM
CSc1nc2c(c(=O)[nH]1)C(c1ccc(Cl)cc1)C1=C(N2)/C(=C/c2ccc(Cl)cc2)CNC1 (configuration not stated),GI50,NCI/ADR-RES ovarian,3.29 µM
same,TGI,NCI/ADR-RES ovarian,16.5 µM
COc1ccc(-c2nocc2-c2cc(OC)c(OC)c(OC)c2)cc1,GI50,NCI/ADR-RES ovarian,0.0492 µM
same,TGI,NCI/ADR-RES ovarian,> 61 µM
CCN1CCN(C(=O)[C@]23CCC(C)(C)C[C@@H]2C2=CC[C@@H]4[C@@]5(C)C/C(=C/c6cccnc6)C(=O)C(C)(C)[C@@H]5CC[C@@]4(C)[C@]2(C)CC3)CC1,GI50,NCI/ADR-RES ovarian,1.57 µM
same,TGI,NCI/ADR-RES ovarian,3.46 µM
Cc1ccccc1/C=C1\CN(C(=O)OC(C)(C)C)C/C(=C\c2ccccc2C)C1=O,GI50,NCI/ADR-RES ovarian,3.49 µM
same,TGI,NCI/ADR-RES ovarian,65.1 µM
Cc1cc2c(cc1C)[n+](=O)c(C(=O)/C=C/c1ccccc1Cl)c(C)n2[O-],TGI,M19-MEL melanoma,> 100 µM
same,TGI,HOP-18 NSCLC,> 100 µM
same,TGI,KM20L2 colon,> 100 µM
same,TGI,DLD-1 colon,42.1 µM
same,TGI,RXF-631 renal,84.9 µM
same,TGI,DMS 114 small cell lung,53.4 µM
CC(C)[C@@H]1CC[C@@H]2[C@@H]1[C@H](OC(=O)/C=C/c1ccccc1)[C@]1(C(C)C)C[C@@H](OC(=O)CO)[C@@]2(C)O1,GI50,NCI/ADR-RES ovarian,0.0795 µM
same,TGI,NCI/ADR-RES ovarian,5 µM
CC(C)CC(=O)NS(=O)(=O)c1ccccc1,TGI,M19-MEL melanoma,> 100 µM
same,TGI,HOP-18 NSCLC,> 100 µM
same,TGI,KM20L2 colon,> 100 µM
same,TGI,DLD-1 colon,> 100 µM
same,TGI,RXF-631 renal,> 100 µM
same,TGI,DMS 114 small cell lung,> 100 µM
CC1=C(c2cc(C(=O)Nc3nccs3)nc(NC#N)n2)Sc2ccccc2N1,TGI,M19-MEL melanoma,> 100 µM
same,TGI,HOP-18 NSCLC,> 100 µM
same,TGI,KM20L2 colon,> 100 µM
same,TGI,DLD-1 colon,> 100 µM
same,TGI,RXF-631 renal,> 100 µM
O=C(CCl)Nc1ccc2c(c1)C(=O)c1ccc(NC(=O)CCl)cc1C2=O,GI50,NCI/ADR-RES ovarian,0.352 µM
same,TGI,NCI/ADR-RES ovarian,1.78 µM
O=S(=O)(NCCCNc1cc(-c2cn(-c3ccccc3)nc2-c2cccc(O)c2)ccn1)c1ccc(Cl)cc1,GI50,NCI/ADR-RES ovarian,1.94 µM
same,TGI,NCI/ADR-RES ovarian,5.3 µM
Nc1c(C(=O)Nc2ccccc2)sc2nc3c(cc12)CCCC3,GI50,NCI/ADR-RES ovarian,0.683 µM
same,TGI,NCI/ADR-RES ovarian,> 100 µM
CC1CCC23COC(=O)C2C(O)CCC3C1(C)CC(O)c1ccoc1 (configuration not stated),TGI,M19-MEL melanoma,> 100 µM
same,TGI,HOP-18 NSCLC,> 100 µM
same,TGI,KM20L2 colon,> 100 µM
same,TGI,DLD-1 colon,> 100 µM
same,TGI,DMS 114 small cell lung,> 100 µM
C[n+]1ccc(-c2c3nc(c(-c4ccc5c(ccc[n+]5C)c4)c4ccc([nH]4)c(-c4cc[n+](C)cc4)c4nc(c(-c5ccc6c(ccc[n+]6C)c5)c5ccc2[nH]5)C=C4)C=C3)cc1,GI50,MDA-N,30 µM
same,TGI,MDA-N,> 50 µM
same,GI50,NCI/ADR-RES ovarian,> 50 µM
same,TGI,NCI/ADR-RES ovarian,> 50 µM
COc1ccc(CNc2nc(NCc3ccc(OC)cc3)c3n[nH]c(C(C)C)c3n2)cc1,GI50,NCI/ADR-RES ovarian,3.59 µM
same,TGI,NCI/ADR-RES ovarian,15.9 µM
CC1=CC2C(C(C)C)CC1C1C(=O)OC(=O)C21 (configuration not stated),TGI,NCI/ADR-RES ovarian,> 100 µM
O=c1/c(=C/c2ccc3c(c2)OCO3)sc2nnc(-c3ccco3)n12,TGI,M19-MEL melanoma,> 100 µM
same,TGI,HOP-18 NSCLC,> 100 µM
same,TGI,KM20L2 colon,> 100 µM
same,TGI,DLD-1 colon,> 100 µM
same,TGI,DMS 114 small cell lung,> 100 µM
NC[C@@](O)(c1ccc(Cl)cc1)c1ccc(-c2cn[nH]c2)cc1,GI50,NCI/ADR-RES ovarian,3.48 µM and 2.2 µM
CC/C=C\C/C=C\C[C@H]1C/C=C2/C(=O)C=C[C@H]2C/C=C\CCC(=O)O1,GI50,NCI/ADR-RES ovarian,4.7 µM
same,TGI,NCI/ADR-RES ovarian,> 14.3 µM
Cn1c(=S)sc2nc3ccccc3n2c1=S,TGI,MDA-N,38.5 µM
same,TGI,NCI/ADR-RES ovarian,44.8 µM
Cc1cccc(C[C@H](NC(=O)Nc2ccc(Cl)cc2F)C(=O)N[C@@H]2C(=O)N3C[C@H](OC(=O)CCN(C)C)C[C@H]3C(=O)N3CCCC[C@H]3C(=O)N[C@@H](C)C(=O)N3C[C@H](C)C[C@H]3C(=O)O[C@H]2C)c1 ({NH(4-Cl-2-F-phenyl)-CO}-[Phe(3-Me)][aThr][Hyp](Propanoyl(3-NMe2))[Pip]A[Pro(4R-Me)]; ester 2-C),GI50,NCI/ADR-RES ovarian,10.8 µM
same,TGI,NCI/ADR-RES ovarian,28.5 µM
COc1ccc(Cn2c(Br)c3c(c2-c2cc(OC)c(OC)c(OC)c2)CCc2sc(NC(C)=O)nc2-3)cc1,GI50,NCI/ADR-RES ovarian,4.97 µM
same,TGI,NCI/ADR-RES ovarian,> 100 µM
COC(=O)NN1C(C)=C(C(=O)OC)C2(CCOC2=O)C1(C)O (configuration not stated),TGI,HOP-18 NSCLC,> 100 µM
same,TGI,KM20L2 colon,> 100 µM
same,TGI,DLD-1 colon,> 100 µM
same,TGI,RXF-631 renal,> 100 µM
same,TGI,DMS 114 small cell lung,> 100 µM
O=C(Nc1ccc(Br)cc1F)c1cc(Br)ccc1O,GI50,NCI/ADR-RES ovarian,0.876 µM
same,TGI,NCI/ADR-RES ovarian,5.44 µM
CCSc1nc2n(c(=S)n1)CCN2C,TGI,M19-MEL melanoma,29.4 µM
same,TGI,KM20L2 colon,52.9 µM
same,TGI,DMS 114 small cell lung,39.4 µM
CC(=O)OCC1OC(n2c(-c3ccccc3)c(C)c(C)c(C#N)c2=S)C(OC(C)=O)C(OC(C)=O)C1OC(C)=O (configuration not stated),TGI,MDA-N,> 50 µM and 56.6 µM
same,TGI,NCI/ADR-RES ovarian,> 100 µM
